Assay results: ChEMBL document CHEMBL6074708, “Advanced Delivery Systems and Novel Psilocin Derivatives for Enhanced Therapeutic Applications” (ACS Med Chem Lett, 2024); call rule not given here

biological target: 5-hydroxytryptamine receptor 2A (Homo sapiens) (UniProt P28223); assay: Displacement of [3H]ketanserin from human 5HT2A receptor expressed in HEK293 cells at 0 to 10000 nM preincubated with compound for 30 mins followed by [3H]ketanserin addition and measured after 60 mins by microBeta scintillation counter relative to psilocin; assay type: cell-based; conditions: dose 0-10000 nM, time 90.0 min
Sequence (P28223 whole entry): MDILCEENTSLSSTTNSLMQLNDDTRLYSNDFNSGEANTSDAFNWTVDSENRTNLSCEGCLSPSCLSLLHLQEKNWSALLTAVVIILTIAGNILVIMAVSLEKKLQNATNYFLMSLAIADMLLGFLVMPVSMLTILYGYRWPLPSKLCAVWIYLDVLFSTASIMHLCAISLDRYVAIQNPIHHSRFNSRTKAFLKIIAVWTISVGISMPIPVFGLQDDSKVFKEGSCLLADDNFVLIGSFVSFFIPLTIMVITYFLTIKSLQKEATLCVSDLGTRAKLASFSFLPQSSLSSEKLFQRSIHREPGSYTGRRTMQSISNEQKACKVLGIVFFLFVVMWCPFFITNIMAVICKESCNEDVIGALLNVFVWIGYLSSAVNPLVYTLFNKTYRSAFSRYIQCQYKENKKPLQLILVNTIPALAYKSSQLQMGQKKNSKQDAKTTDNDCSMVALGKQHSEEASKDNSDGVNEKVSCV

| Compound | Activity |
| --- | --- |
| CN(C)CCc1c[nH]c2cccc(OC(=O)[C@H]3C[C@@H]3C(=O)Oc3cccc4[nH]cc(CCN(C)C)c34)c12 | Active; Higher Activity Observed |
| CN(C)CCc1c[nH]c2cccc(OC(=O)c3ccccc3F)c12 | Active; Same Activity Observed |
| CN(C)CCc1c[nH]c2cccc(OC(=O)CCCC(=O)Oc3cccc4[nH]cc(CCN(C)C)c34)c12 | Active; Higher Activity Observed |
| CN(C)CCc1c[nH]c2cccc(OC(=O)CCC(=O)Oc3cccc4[nH]cc(CCN(C)C)c34)c12 | Active; Higher Activity Observed |
| CN(C)CCc1c[nH]c2cccc(OC(=O)C(C)(C)C(=O)Oc3cccc4[nH]cc(CCN(C)C)c34)c12 | Active; Higher Activity Observed |
| CN(C)CCc1c[nH]c2cccc(OC(=O)c3ccc(Br)cc3)c12 | Active; Same Activity Observed |
| CN(C)CCc1c[nH]c2cccc(OC(=O)c3cccc(C(=O)Oc4cccc5[nH]cc(CCN(C)C)c45)c3)c12 | Active; Higher Activity Observed |
| CN(C)CCc1c[nH]c2cccc(O)c12 | Active; Same Activity Observed |
